Among the data in ChEMBL document CHEMBL5137130, “Highly N-Methylated Peptides from the Antarctic Sponge Inflatella coelosphaeroides Are Active against Plasmodium falciparum” (J Nat Prod, 2022) are IC50 values, retold here.

Where a SMILES comes first, the peptide text is derived from it. [ ]: non-standard residue; d: D form. The star is where a group is joined. Phe(Nα-CONH2) = NC(=O)N[C@@H](Cc1ccccc1)C(=O)*; NMeI = CC[C@H](C)[C@H](NC)C(=O)O; X1 = CN(/C=C\c1c[nH]c2ccccc12)*; NMeL = CN[C@@H](CC(C)C)C(=O)O; NMeV = CN[C@H](C(=O)O)C(C)C; NMeA = CN[C@@H](C)C(=O)O; For = O=C* Where only a bound is given, the exact number is not on record here.

Data set [1] relates to Plasmodium falciparum. The data set can be described thus: Antimalarial activity against blood stage chloroquine-sensitive Plasmodium falciparum NF54 assessed as reduction in parasite growth incubated for 72 hrs by SYBR Green dye based fluorescence assay. It is filed as functional, organism-based. Conditions: NF54, 72 h.
Data set [2] has as its system Plasmodium falciparum. The data set can be described thus: Antimalarial activity against blood stage chloroquine-resistant Plasmodium falciparum Dd2 assessed as reduction in parasite growth incubated for 72 hrs by SYBR Green dye based fluorescence assay. It counts as functional, organism-based. Conditions: Dd2, 72 h.
The test system of data set [3] is Plasmodium falciparum. The data set can be described thus: Antimalarial activity against blood stage chloroquine-sensitive Plasmodium falciparum 3D7 assessed as reduction in parasite growth incubated for 72 hrs by SYBR Green dye based fluorescence assay. It counts as functional, organism-based. Conditions: 3D7, 72 h.
Data set [4] in a line: Cytotoxicity against mouse J774 cells assessed as reduction in cell viability incubated for 68 hrs by CellTiter96 Aqueous One Solution Cell Proliferation Assay. It counts as toxicity, cell-based.

For the compound `CC[C@H](C)[C@@H](C(N)=O)N(C)C(=O)[C@H](C(C)C)N(C)C(=O)[C@H](CC(C)C)N(C)C(=O)[C@H](Cc1ccccc1)N(C)C(=O)[C@H](Cc1ccccc1)NC=O`, the 50% inhibitory concentration (IC50) worked out at 2.61 µM in the data set with Plasmodium falciparum [1], 1.72 µM in the data set on Plasmodium falciparum [2] and 2.1 µM in the data set on Plasmodium falciparum [3]. For the same compound, the concentration for half-maximal inhibition (IC50) at 68 h in data set [4] is above 20 µM.

As to `CC[C@H](C)[C@@H](C(=O)NC)N(C)C(=O)[C@H](C)N(C)C(=O)[C@H](C(C)C)N(C)C(=O)[C@H](C(C)C)N(C)C(=O)[C@H](C)N(C)C(=O)[C@H](C(C)C)N(C)C(=O)[C@H](C(C)C)N(C)C(=O)[C@H](C)N(C)C(=O)[C@H](C)NC(C)=O` (Ac-A[NMeA][NMeV][NMeV][NMeA][NMeV][NMeV][NMeA][NMeI]-NHMe), the IC50 with Plasmodium falciparum [1], in the data set with Plasmodium falciparum [2] and with Plasmodium falciparum [3] was above 10 µM throughout. The IC50 at 68 h in data set [4] is above 20 µM.

Regarding `CC[C@H](C)[C@@H](C(=O)N(C)/C=C\c1c[nH]c2ccccc12)N(C)C(=O)[C@H](C(C)C)N(C)C(=O)[C@H](C(C)C)N(C)C(=O)[C@H](CC(C)C)N(C)C(=O)[C@@H]1CCCN1C(=O)[C@H](Cc1ccccc1)NC(=O)[C@H](Cc1ccccc1)NC(C)=O` (Ac-FFP[NMeL][NMeV][NMeV][NMeI]-X1), the IC50 came to 3.93 µM in the data set on Plasmodium falciparum [1], 3.3 µM in the data set with Plasmodium falciparum [2] and 8.65 µM with Plasmodium falciparum [3]. The IC50 at 68 h in data set [4] is above 20 µM.

`CC[C@H](C)[C@@H](C(=O)N(C)[C@@H](C)C(=O)N(C)[C@H](C(N)=O)C(C)C)N(C)C(=O)[C@H]([C@@H](C)CC)N(C)C(=O)[C@H](C)N(C)C(=O)[C@H](C(C)C)N(C)C(=O)[C@H](C)N(C)C(=O)[C@@H](NC(C)=O)C(C)C` (Ac-V[NMeA][NMeV][NMeA][NMeI][NMeI][NMeA][NMeV]-NH2): the IC50 in the data set on Plasmodium falciparum [1], in the data set on Plasmodium falciparum [2] and with Plasmodium falciparum [3] was above 10 µM throughout. The IC50 at 68 h in data set [4] is above 20 µM.

Turning to `CNC(=O)[C@H](C(C)C)N(C)C(=O)[C@H](C(C)C)N(C)C(=O)[C@H](C(C)C)N(C)C(=O)[C@H](C)N(C)C(=O)[C@H](C)N(C)C(=O)[C@H](CC(C)C)N(C)C(=O)[C@H](C(C)C)N(C)C(=O)[C@H](Cc1ccccc1)NC=O` (For-F[NMeV][NMeL][NMeA][NMeA][NMeV][NMeV][NMeV]-NHMe), the IC50 in the data set with Plasmodium falciparum [1] came out at 3.73 µM; with Plasmodium falciparum [2], 1.07 µM; in the data set on Plasmodium falciparum [3], 2.52 µM. Also, the IC50 at 68 h in data set [4] is above 20 µM.

For the compound `CC[C@H](C)[C@@H](C(=O)N(C)[C@H](C(=O)NC)[C@@H](C)CC)N(C)C(=O)[C@H](C(C)C)N(C)C(=O)[C@H](C)N(C)C(=O)[C@H](C(C)C)N(C)C(=O)[C@H](C(C)C)N(C)C(=O)[C@@H](NC=O)C(C)C` (For-V[NMeV][NMeV][NMeA][NMeV][NMeI][NMeI]-NHMe), the IC50 in the data set on Plasmodium falciparum [1] was above 10 µM; with Plasmodium falciparum [2] it was 4.37 µM; in the data set with Plasmodium falciparum [3] it was above 10 µM. Besides, the concentration for half-maximal inhibition (IC50) at 68 h in data set [4] is above 20 µM.

Regarding `CNC(=O)[C@H](C(C)C)N(C)C(=O)[C@H](C(C)C)N(C)C(=O)[C@H](C(C)C)N(C)C(=O)[C@H](C)N(C)C(=O)[C@H](C)N(C)C(=O)[C@H](CC(C)C)N(C)C(=O)[C@H](C(C)C)N(C)C(=O)[C@H](Cc1ccccc1)NC(N)=O` ({Phe(Nα-CONH2)}-[NMeV][NMeL][NMeA][NMeA][NMeV][NMeV][NMeV]-NHMe), the IC50 was 3.05 µM in the data set with Plasmodium falciparum [1], 2.02 µM with Plasmodium falciparum [2] and above 10 µM in the data set on Plasmodium falciparum [3]. In data set [4], the IC50 at 68 h is above 20 µM.

By IC50 is commonly meant the concentration that inhibits the measured activity by half.
